Values quoted from earlier work as cited in US20010031278A1, “Sustained release oxycodone formulations with no fed/fast effect” (priority 1996, published 2001).

Conditions: gastric fluid (pH about 1) vs intestinal fluid (pH about 7.5)

For `COc1ccc2c3c1O[C@H]1C(=O)CC[C@@]4(O)[C@@H](C2)N(C)CC[C@]314.Cl` [Oxycodone hydrochloride], the “solubility at low vs high pH” value is given as “more soluble in gastric fluid (pH about 1) than in intestinal fluid (pH about 7.5)”.
